Measurements: patent US20250171437A1 (Agios Pharmaceuticals,Inc., priority 2022, published 2025)

Molecular target: T1, human PAH with the R408W mutation (A375 R408W cells) (Homo sapiens, UniProt P00439, R408W)
T1 construct: expressed in transfected cells
T1 sequence (P00439 1-452 R408W): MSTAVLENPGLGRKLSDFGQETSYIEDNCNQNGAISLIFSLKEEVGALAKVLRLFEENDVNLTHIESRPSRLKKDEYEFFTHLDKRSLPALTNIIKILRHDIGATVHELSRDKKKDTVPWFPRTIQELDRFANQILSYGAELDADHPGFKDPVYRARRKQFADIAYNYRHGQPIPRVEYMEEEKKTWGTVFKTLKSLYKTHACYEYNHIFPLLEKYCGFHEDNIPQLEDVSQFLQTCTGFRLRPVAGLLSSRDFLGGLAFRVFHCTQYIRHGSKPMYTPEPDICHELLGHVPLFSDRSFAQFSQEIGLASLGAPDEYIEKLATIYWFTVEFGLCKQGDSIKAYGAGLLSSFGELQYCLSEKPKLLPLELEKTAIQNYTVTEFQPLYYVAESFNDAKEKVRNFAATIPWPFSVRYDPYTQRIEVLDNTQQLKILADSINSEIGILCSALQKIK
Experiment: Cell Based Phenylalanine Flux Assay
Conditions: A375 R408W cells; 24 hrs with compound, then 20 μM sepiapterin and 800 μM 13C9,15N-Phenylalanine for 4 hours; 13C-Tyrosine by LC-MS; average where tested multiple times
Procedure, shortened: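 LC-MS quantitation of 13C-tyrosine in media gave AC50 values. Stable A375 R408W PAH cells were preincubated 24 h with compound, then fed 800 μM labelled Phe plus 20 μM sepiapterin for 4 h. Dose curves were 10-point, tested in duplicate, averaged over repeat runs.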

Row | SMILES | AC50 [µM]
1 | Cc1ccc2oc([C@@H]3c4nc[nH]c4CCN3C(=O)c3ncc(Cl)s3)nc2c1 [Example 1, (S)-(5-chlorothiazol-2-yl)(4-(5-methylbenzo[d]oxazol-2-yl)-6,7-dihydro-1H-imidazo[4,5-c]pyridin-5(4H)-yl)methanone] | 0.5 to 1
2 | Cc1ccc2oc([C@H]3c4nc[nH]c4CCN3C(=O)c3ncc(Cl)s3)nc2c1 [Example 2, (R)-(5-chlorothiazol-2-yl)(4-(5-methylbenzo[d]oxazol-2-yl)-6,7-dihydro-1H-imidazo[4,5-c]pyridin-5(4H)-yl)methanone] | ≥ 5
3 | O=C(CC1CC1)N1CCc2[nH]cnc2[C@H]1c1nc2ccc(Br)cc2o1 [Example 3, (S)-1-(4-(6-bromobenzo[d]oxazol-2-yl)-6,7-dihydro-1H-imidazo[4,5-c]pyridin-5(4H)-yl)-2-cyclopropylethanone] | ≤ 0.5
4 | O=C(CC1CC1)N1CCc2[nH]cnc2[C@@H]1c1nc2ccc(Br)cc2o1 [Example 4, (R)-1-(4-(6-bromobenzo[d]oxazol-2-yl)-6,7-dihydro-1H-imidazo[4,5-c]pyridin-5(4H)-yl)-2-cyclopropylethanone] | ≥ 5
5 | O=C(c1cnc(-c2ccccn2)s1)N1CCc2[nH]cnc2[C@H]1c1nc2cc(F)ccc2o1 [Example 5, (S)-(4-(5-fluorobenzo[d]oxazol-2-yl)-6,7-dihydro-1H-imidazo[4,5-c]pyridin-5(4H)-yl)(2-(pyridin-2-yl)thiazol-5-yl)methanone] | ≤ 0.5
6 | O=C(c1cnc(-c2ccccn2)s1)N1CCc2[nH]cnc2[C@@H]1c1nc2cc(F)ccc2o1 [Example 6, (R)-(4-(5-fluorobenzo[d]oxazol-2-yl)-6,7-dihydro-1H-imidazo[4,5-c]pyridin-5(4H)-yl)(2-(pyridin-2-yl)thiazol-5-yl)methanone] | 1 to 5
7 | O=C(c1cnc(-c2ccccn2)o1)N1CCc2[nH]cnc2[C@H]1c1nc2ccc(Br)cc2o1 [Example 7, (S)-(4-(6-bromobenzo[d]oxazol-2-yl)-6,7-dihydro-1H-imidazo[4,5-c]pyridin-5(4H)-yl)(2-(pyridin-2-yl)oxazol-5-yl)methanone] | 0.5 to 1
8 | O=C(c1cnc(-c2ccccn2)o1)N1CCc2[nH]cnc2[C@@H]1c1nc2ccc(Br)cc2o1 [Example 8, (R)-(4-(6-bromobenzo[d]oxazol-2-yl)-6,7-dihydro-1H-imidazo[4,5-c]pyridin-5(4H)-yl)(2-(pyridin-2-yl)oxazol-5-yl)methanone] | 1 to 5
9 | Cn1cc(-c2ncc(C(=O)N3CCc4[nH]cnc4[C@H]3c3nc4cc(F)ccc4o3)s2)cn1 [Example 9, (S)-(4-(5-fluorobenzo[d]oxazol-2-yl)-6,7-dihydro-1H-imidazo[4,5-c]pyridin-5(4H)-yl)(2-(1-methyl-1H-pyrazol-4-yl)thiazol-5-yl)methanone] | ≤ 0.5
10 | Cn1cc(-c2ncc(C(=O)N3CCc4[nH]cnc4[C@@H]3c3nc4cc(F)ccc4o3)s2)cn1 [Example 10, (R)-(4-(5-fluorobenzo[d]oxazol-2-yl)-6,7-dihydro-1H-imidazo[4,5-c]pyridin-5(4H)-yl)(2-(1-methyl-1H-pyrazol-4-yl)thiazol-5-yl)methanone] | 1 to 5
11 | O=C(c1cnc(-c2ccccn2)o1)N1CCc2[nH]cnc2[C@H]1c1nc2cc(F)ccc2o1 [Example 11, (S)-(4-(5-fluorobenzo[d]oxazol-2-yl)-6,7-dihydro-1H-imidazo[4,5-c]pyridin-5(4H)-yl)(2-(pyridin-2-yl)oxazol-5-yl)methanone] | 0.5 to 1
12 | O=C(c1cnc(-c2ccccn2)o1)N1CCc2[nH]cnc2[C@@H]1c1nc2cc(F)ccc2o1 [Example 12, (R)-(4-(5-fluorobenzo[d]oxazol-2-yl)-6,7-dihydro-1H-imidazo[4,5-c]pyridin-5(4H)-yl)(2-(pyridin-2-yl)oxazol-5-yl)methanone] | 1 to 5
13 | CC(C)(F)c1ncc(C(=O)N2CCc3[nH]cnc3[C@H]2c2nc3cc(F)ccc3o2)o1 [Example 13, (S)-(4-(5-fluorobenzo[d]oxazol-2-yl)-6,7-dihydro-1H-imidazo[4,5-c]pyridin-5(4H)-yl)(2-(2-fluoropropan-2-yl)oxazol-5-yl)methanone] | ≤ 0.5
14 | CC(C)(F)c1ncc(C(=O)N2CCc3[nH]cnc3[C@@H]2c2nc3cc(F)ccc3o2)o1 [Example 14, (R)-(4-(5-fluorobenzo[d]oxazol-2-yl)-6,7-dihydro-1H-imidazo[4,5-c]pyridin-5(4H)-yl)(2-(2-fluoropropan-2-yl)oxazol-5-yl)methanone] | 1 to 5
15 | O=C(c1nnc(C2CC2)o1)N1CCc2[nH]cnc2[C@H]1c1nc2cc(F)ccc2o1 [Example 15, (S)-(5-cyclopropyl-1,3,4-oxadiazol-2-yl)(4-(5-fluorobenzo[d]oxazol-2-yl)-6,7-dihydro-1H-imidazo[4,5-c]pyridin-5(4H)-yl)methanone] | 0.5 to 1
16 | O=C(c1nnc(C2CC2)o1)N1CCc2[nH]cnc2[C@@H]1c1nc2cc(F)ccc2o1 [Example 16, (R)-(5-cyclopropyl-1,3,4-oxadiazol-2-yl)(4-(5-fluorobenzo[d]oxazol-2-yl)-6,7-dihydro-1H-imidazo[4,5-c]pyridin-5(4H)-yl)methanone] | 1 to 5
17 | CC(C)(C)c1ncc(C(=O)N2CCc3[nH]cnc3[C@H]2c2nc3cc(F)ccc3o2)s1 [Example 17, (S)-(2-(tert-butyl)thiazol-5-yl)(4-(5-fluorobenzo[d]oxazol-2-yl)-6,7-dihydro-1H-imidazo[4,5-c]pyridin-5(4H)-yl)methanone] | ≤ 0.5
18 | CC(C)(C)c1ncc(C(=O)N2CCc3[nH]cnc3[C@@H]2c2nc3cc(F)ccc3o2)s1 [Example 18, (R)-(2-(tert-butyl)thiazol-5-yl)(4-(5-fluorobenzo[d]oxazol-2-yl)-6,7-dihydro-1H-imidazo[4,5-c]pyridin-5(4H)-yl)methanone] | 1 to 5
19 | Cc1ccc2c(C(=O)N3CCc4[nH]cnc4[C@H]3c3nc4cc(F)ccc4o3)cnn2c1 [Example 19, (S)-(4-(5-fluorobenzo[d]oxazol-2-yl)-6,7-dihydro-1H-imidazo[4,5-c]pyridin-5(4H)-yl)(6-methylpyrazolo[1,5-a]pyridin-3-yl)methanone] | 1 to 5
20 | Cc1ccc2c(C(=O)N3CCc4[nH]cnc4[C@@H]3c3nc4cc(F)ccc4o3)cnn2c1 [Example 20, (R)-(4-(5-fluorobenzo[d]oxazol-2-yl)-6,7-dihydro-1H-imidazo[4,5-c]pyridin-5(4H)-yl)(6-methylpyrazolo[1,5-a]pyridin-3-yl)methanone] | ≥ 5
21 | CC(C)(C)c1ncc(C(=O)N2CCc3[nH]cnc3[C@H]2c2nc3cc(F)ccc3o2)o1 [Example 21, (S)-(2-(tert-butyl)oxazol-5-yl)(4-(5-fluorobenzo[d]oxazol-2-yl)-6,7-dihydro-1H-imidazo[4,5-c]pyridin-5(4H)-yl)methanone] | ≤ 0.5
22 | CC(C)(C)c1ncc(C(=O)N2CCc3[nH]cnc3[C@@H]2c2nc3cc(F)ccc3o2)o1 [Example 22, (R)-(2-(tert-butyl)oxazol-5-yl)(4-(5-fluorobenzo[d]oxazol-2-yl)-6,7-dihydro-1H-imidazo[4,5-c]pyridin-5(4H)-yl)methanone] | 1 to 5
23 | O=C(c1ocnc1C(F)(F)F)N1CCc2[nH]cnc2[C@H]1c1nc2cc(F)ccc2o1 [Example 23, (S)-(4-(5-fluorobenzo[d]oxazol-2-yl)-6,7-dihydro-1H-imidazo[4,5-c]pyridin-5(4H)-yl)(4-(trifluoromethyl)oxazol-5-yl)methanone] | ≤ 0.5
24 | O=C(c1ocnc1C(F)(F)F)N1CCc2[nH]cnc2[C@@H]1c1nc2cc(F)ccc2o1 [Example 24] | 1 to 5

Results, then the compound that gave them:

Row | AC50 [µM] | SMILES
25 | 1 to 5 | CC(O)c1nc(Cl)c(C(=O)N2CCc3[nH]cnc3[C@@H]2c2nc3cc(F)ccc3o2)o1 (single isomer, unassigned) [Example 234]
26 | 1 to 5 | CC(O)c1nc(Cl)c(C(=O)N2CCc3[nH]cnc3[C@H]2c2nc3cc(F)ccc3o2)o1 (single isomer, unassigned) [Example 235]
27 | 0.5 to 1 | CC(O)c1nc(Cl)c(C(=O)N2CCc3[nH]cnc3[C@H]2c2nc3cc(F)ccc3o2)o1 (single isomer, unassigned) [Example 236]
28 | ≤ 0.5 | CC1CN(C(=O)c2ocnc2C(F)F)[C@H](c2nc3cccc(F)c3o2)c2nc[nH]c21 (single isomer, unassigned) [Example 803]
29 | ≤ 0.5 | CC1CN(C(=O)c2ocnc2C(F)F)[C@H](c2nc3cccc(F)c3o2)c2nc[nH]c21 (single isomer, unassigned) [Example 804]
30 | 1 to 5 | CC1CN(C(=O)c2ocnc2C(F)F)[C@@H](c2nc3cccc(F)c3o2)c2nc[nH]c21 (single isomer, unassigned) [Example 805]
31 | 1 to 5 | CC1CN(C(=O)c2ocnc2C(F)F)[C@@H](c2nc3cccc(F)c3o2)c2nc[nH]c21 (single isomer, unassigned) [Example 806]
32 | ≥ 5 | O=C(c1cnco1)N1Cc2[nH]cnc2[C@H]1c1nc2ccccc2o1 (single isomer, unassigned) [Example 925]
33 | 1 to 5 | c1ccc2oc([C@@H]3c4nc[nH]c4CN3c3nc4ccccc4o3)nc2c1 (single isomer, unassigned) [Example 931]
34 | 1 to 5 | c1ccc2oc([C@H]3c4nc[nH]c4CN3c3nc4ccccc4o3)nc2c1 (single isomer, unassigned) [Example 932]
